Data taken from publication PMC12594101, “Biphasic control of the B cell transcriptome by mTORC1 and GSK3” (Cell reports, 2025).

Tests used:
[1] = target: GSK3A (Homo sapiens, UniProt P49840); experiment: in vitro HotSpot kinase assay (Reaction Biology), 10-dose IC50 in triplicate; assay type: biochemical
[2] = target: GSK3B (Homo sapiens, UniProt P49841); experiment: as above; assay type: biochemical
Sequence of GSK3B (P49841 whole entry): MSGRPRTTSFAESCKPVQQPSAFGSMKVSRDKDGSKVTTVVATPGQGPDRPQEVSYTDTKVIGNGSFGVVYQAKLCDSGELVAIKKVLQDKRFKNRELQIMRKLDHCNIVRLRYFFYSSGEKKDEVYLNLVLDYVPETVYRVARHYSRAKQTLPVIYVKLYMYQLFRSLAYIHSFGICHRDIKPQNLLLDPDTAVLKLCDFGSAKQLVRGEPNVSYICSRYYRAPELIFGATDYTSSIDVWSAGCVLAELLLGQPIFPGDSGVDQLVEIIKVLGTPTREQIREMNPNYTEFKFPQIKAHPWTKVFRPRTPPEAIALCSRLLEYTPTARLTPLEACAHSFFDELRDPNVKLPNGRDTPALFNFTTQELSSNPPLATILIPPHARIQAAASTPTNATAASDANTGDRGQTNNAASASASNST

Sequence of GSK3A (P49840 2-483): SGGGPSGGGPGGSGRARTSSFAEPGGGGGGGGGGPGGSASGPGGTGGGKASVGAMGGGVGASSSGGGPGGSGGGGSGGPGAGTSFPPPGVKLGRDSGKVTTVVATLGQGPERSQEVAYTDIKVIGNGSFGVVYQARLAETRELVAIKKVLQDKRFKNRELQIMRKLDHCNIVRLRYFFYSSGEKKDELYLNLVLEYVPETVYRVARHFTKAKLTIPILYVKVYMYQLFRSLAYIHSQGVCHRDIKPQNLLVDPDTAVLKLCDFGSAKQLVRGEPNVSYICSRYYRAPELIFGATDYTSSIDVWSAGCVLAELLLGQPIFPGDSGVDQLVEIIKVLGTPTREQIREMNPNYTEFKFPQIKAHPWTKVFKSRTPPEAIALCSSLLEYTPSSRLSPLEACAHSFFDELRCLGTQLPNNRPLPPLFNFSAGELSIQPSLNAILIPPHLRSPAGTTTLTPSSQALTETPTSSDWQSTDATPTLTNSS

For `CCn1cc(C(=O)O)c(=O)c2c(N)c(F)c(NC3CCCCC3)cc21` [AS1842856], the IC50 [1] was 2.8 nM and the IC50 [2] was 2.8 nM.
